In patent publication US9694016B2 (Novartis AG, priority 2013, dated 2017):
Read-outs that look alike come from different tables or passages of the source.

Target: b-Raf (V600E) (Homo sapiens (Human), UniProt P15056, V600E)
Details: read-out: b-Raf IC-50, AlphaScreen
[1] = 60 min pre-incubation, 3 hours reaction
[2] = 60 min pre-incubation, reaction 3 hours at room temperature

Chain of b-Raf (V600E) (P15056 whole entry V600E): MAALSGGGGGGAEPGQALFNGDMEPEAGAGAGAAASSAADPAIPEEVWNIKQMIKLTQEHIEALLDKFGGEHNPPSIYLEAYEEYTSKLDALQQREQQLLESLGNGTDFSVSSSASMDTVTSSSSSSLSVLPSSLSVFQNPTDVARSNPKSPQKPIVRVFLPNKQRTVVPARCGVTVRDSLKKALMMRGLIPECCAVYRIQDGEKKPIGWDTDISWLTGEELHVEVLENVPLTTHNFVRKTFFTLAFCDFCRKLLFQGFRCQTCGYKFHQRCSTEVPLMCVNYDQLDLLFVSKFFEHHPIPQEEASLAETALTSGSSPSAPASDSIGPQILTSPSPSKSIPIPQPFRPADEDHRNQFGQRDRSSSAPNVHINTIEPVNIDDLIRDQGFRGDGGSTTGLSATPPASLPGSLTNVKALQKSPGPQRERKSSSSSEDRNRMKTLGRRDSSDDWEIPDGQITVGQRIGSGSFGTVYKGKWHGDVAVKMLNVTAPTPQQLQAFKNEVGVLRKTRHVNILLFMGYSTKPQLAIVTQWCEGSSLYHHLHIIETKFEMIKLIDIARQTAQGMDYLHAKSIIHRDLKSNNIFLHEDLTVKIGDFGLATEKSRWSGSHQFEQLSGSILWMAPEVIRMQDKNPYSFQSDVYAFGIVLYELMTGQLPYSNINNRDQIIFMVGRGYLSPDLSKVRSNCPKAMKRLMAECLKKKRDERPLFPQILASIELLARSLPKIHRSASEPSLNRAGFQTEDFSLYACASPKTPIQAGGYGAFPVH

SMILES | IC50 [1] | IC50 (Table 2, 3 hours reaction) | IC50 [2]
Cc1ncc(NC(=O)c2cc(C3CC3)nn2C)cc1-c1cc(N2CCOCC2)c(=O)n(C)c1 [Example 377, 3-cyclopropyl-N-(1′,2-dimethyl-5′-morpholino-6′-oxo-1′,6′-dihydro-[3,3′-bipyridin]-5-yl)-1-methyl-1H-pyrazole-5-carboxamide] |  | 200 nM | 
CCOc1ncc(-c2cc(NC(=O)c3cnnc(C(C)(C)F)c3)ccc2C)cc1N1CCOCC1 [Example 304, N-(3-(6-ethoxy-5-morpholinopyridin-3-yl)-4-methylphenyl)-6-(2-fluoropropan-2-yl)pyridazine-4-carboxamide] |  | 0.9 nM | 
Cc1ccc(NC(=O)c2ccnc(C(C)C)c2)cc1-c1cc(N2CCOCC2)c(=O)n(C)c1 [Example 348, 2-isopropyl-N-(4-methyl-3-(1-methyl-5-morpholino-6-oxo-1,6-dihydropyridin-3-yl)phenyl)isonicotinamide] |  | 2.7 nM | 
Cc1ncc(NC(=O)c2ccnc(C(C)(F)F)c2)cc1-c1cc(N2CCOCC2)n(C)c(=O)c1 [Example 510, 2-(1,1-difluoroethyl)-N-(1′,2-dimethyl-6′-morpholino-2′-oxo-1′,2′-dihydro-[3,4′-bipyridin]-5-yl)isonicotinamide] | 7.5 nM |  | 
CCOc1ncc(-c2cc(NC(=O)c3cnnc(C(C)(C)C#N)c3)ccc2C)cc1N1CCOCC1 [Example 284, 6-(2-cyanopropan-2-yl)-N-(3-(6-ethoxy-5-morpholinopyridin-3-yl)-4-methylphenyl)pyridazine-4-carboxamide] |  | 1.1 nM | 
Cc1ncc(NC(=O)c2ccnc(C(C)(C)C#N)c2)cc1-c1cnc(OCC(F)F)c(N2CCOCC2)c1 [Example 228, 2-(2-cyanopropan-2-yl)-N-(6′-(2,2-difluoroethoxy)-2-methyl-5′-morpholino-[3,3′-bipyridin]-5-yl)isonicotinamide] |  | 4.7 nM | 
Cc1ncc(NC(=O)c2cnnc(C(F)(F)F)c2)cc1-c1cnc(N(C)C)c(N2CCOCC2)c1 [Example 270, N-(6′-(dimethylamino)-2-methyl-5′-morpholino-[3,3′-bipyridin]-5-yl)-6-(trifluoromethyl)pyridazine-4-carboxamide] |  | 0.5 nM | 
CCOc1ncc(-c2cc(NC(=O)c3cnnc(C(F)(F)F)c3)cnc2C)cc1N1CCOC[C@H]1C [Example 285] |  | 200 nM | 
Cc1ncc(NC(=O)c2ccnc(C(C)(C)F)c2)cc1-c1cncc(N2CCOCC2)n1 [Example 534, 2-(2-fluoropropan-2-yl)-N-(6-methyl-5-(6-morpholinopyrazin-2-yl)pyridin-3-yl)isonicotinamide] | 6 nM |  | 
Cn1cc(-c2cc(NC(=O)c3ccnc(C(F)(F)F)c3)ccc2C#N)cc(N2CCOCC2)c1=O [Example 415, N-(4-cyano-3-(1-methyl-5-morpholino-6-oxo-1,6-dihydropyridin-3-yl)phenyl)-2-(trifluoromethyl)isonicotinamide] |  | 10100 nM | 
COc1cccc(NC(=O)c2ccc(C)c(-c3cc(N4CCOCC4)c(=O)n(C)c3)c2)c1 [Example 440, N-(3-methoxyphenyl)-4-methyl-3-(1-methyl-5-morpholino-6-oxo-1,6-dihydropyridin-3-yl)benzamide] | 93.9 nM |  | 
Cc1ccc(C(=O)Nc2ccccn2)cc1-c1cc(N2CCOCC2)c(=O)n(C)c1 [Example 432, 4-methyl-3-(1-methyl-5-morpholino-6-oxo-1,6-dihydropyridin-3-yl)-N-(pyridin-2-yl)benzamide] |  | 99 nM | 
Cc1ccc(NC(=O)c2ccnc(C(C)(F)F)c2)cc1-c1cc(N2CCOCC2)c(OCCO)nn1 [Example 587, 2-(1,1-difluoroethyl)-N-(3-(6-(2-hydroxyethoxy)-5-morpholinopyridazin-3-yl)-4-methylphenyl)isonicotinamide] | 1.1 nM |  | 
Cc1ncc(NC(=O)c2ccnc(C(C)(C)C#N)c2)cc1-c1cncc(N2CCOCC2)c1 [Example 297, 2-(2-cyanopropan-2-yl)-N-(2-methyl-5′-morpholino-[3,3′-bipyridin]-5-yl)isonicotinamide] |  | 18.8 nM | 
Cc1ccc(C(=O)Nc2cccc(C(C)(C)O)c2)cc1-c1cc(N2CCOCC2)c(=O)n(C)c1 [Example 439, N-(3-(2-hydroxypropan-2-yl)phenyl)-4-methyl-3-(1-methyl-5-morpholino-6-oxo-1,6-dihydropyridin-3-yl)benzamide] | 6.3 nM |  | 
Cc1ncc(NC(=O)c2cccc(C(C)(C)C#N)c2)cc1-c1cc(N2CCOCC2)c(=O)n(C)c1 [Example 389, 3-(2-cyanopropan-2-yl)-N-(1′,2-dimethyl-5′-morpholino-6′-oxo-1′,6′-dihydro-[3,3′-bipyridin]-5-yl)benzamide] |  | 64.2 nM | 

More lines, now with the values ahead:

IC50 [1] | IC50 (Table 2, 3 hours reaction) | IC50 [2] | SMILES
1 nM |  |  | CCNc1nc(-c2cc(NC(=O)c3ccnc(C(F)(F)F)c3)ccc2C)cc(N2CCOCC2)n1 [Example 694, N-(3-(2-(ethylamino)-6-morpholinopyrimidin-4-yl)-4-methylphenyl)-2-(trifluoromethyl)isonicotinamide]
3.1 nM |  |  | Cc1ncc(NC(=O)c2cccc(C(F)F)c2)cc1-c1cc(N2CCOCC2)c(=O)n(C)n1 [Example 681, 3-(difluoromethyl)-N-(6-methyl-5-(1-methyl-5-morpholino-6-oxo-1,6-dihydropyridazin-3-yl)pyridin-3-yl)benzamide]
 |  | 0.53 nM | Cc1ccc(NC(=O)c2cccc(C(F)(F)F)c2)cc1-c1cc(N2CCOCC2)nc(N2CC[C@@H](O)C2=O)c1 [Example 1065, (R)—N-(3-(2-(3-hydroxy-2-oxopyrrolidin-1-yl)-6-morpholinopyridin-4-yl)-4-methylphenyl)-3-(trifluoromethyl)benzamide]
 |  | 8.24 nM | Cc1ncc(NC(=O)c2cnnc(C3CC3)c2)cc1-c1cc(NCCO)nc(N2CCOCC2)c1 [Example 1052, 6-cyclopropyl-N-(2′-((2-hydroxyethyl)amino)-2-methyl-6′-morpholino-[3,4′-bipyridin]-5-yl)pyridazine-4-carboxamide]
 |  | 0.9 nM | Cc1ccc(NC(=O)c2ccnc(C(C)(C)C#N)c2)cc1-c1nc(N2CCOCC2)c2sccc2n1 [Example 862, 2-(2-cyanopropan-2-yl)-N-(4-methyl-3-(4-morpholinothieno[3,2-d]pyrimidin-2-yl)phenyl)isonicotinamide]
0.9 nM |  |  | Cc1ccc(NC(=O)c2cccc(C(F)(F)F)c2)cc1-c1nc(N2CCOCC2)c2occc2n1 [Example 838, N-(4-methyl-3-(4-morpholinofuro[3,2-d]pyrimidin-2-yl)phenyl)-3-(trifluoromethyl)benzamide]
30.9 nM |  |  | Cc1ncc(NC(=O)c2ccnc(C(C)(C)C#N)c2)cc1-c1cc(N2CCOCC2)nc(NC2(CO)CCOCC2)n1 [Example 753, 2-(2-cyanopropan-2-yl)-N-(5-(2-((4-(hydroxymethyl)tetrahydro-2H-pyran-4-yl)amino)-6-morpholinopyrimidin-4-yl)-6-methylpyridin-3-yl)isonicotinamide]
 |  | 12.2 nM | CCC(F)(F)c1cc(C(=O)Nc2cnc(C)c(-c3cc(N4CCOCC4)c(S(C)(=O)=O)nn3)c2)ccn1 [Example 925, 2-(1,1-difluoropropyl)-N-(6-methyl-5-(6-(methylsulfonyl)-5-morpholinopyridazin-3-yl)pyridin-3-yl)isonicotinamide]
 |  | 3.13 nM | CCOc1cc(-c2cc(NC(=O)c3ccnc(C4CC4)c3)cnc2C)cc(N2CCOCC2)n1 [Example 1149, 2-cyclopropyl-N-(2′-ethoxy-2-methyl-6′-morpholino-[3,4′-bipyridin]-5-yl)isonicotinamide]
 |  | 43 nM | Cc1ncc(NC(=O)c2cccc(C(F)(F)F)c2)cc1-c1ccnc(N2CCOCC2=O)c1 [Example 1135, N-(2-methyl-2′-(3-oxomorpholino)-[3,4′-bipyridin]-5-yl)-3-(trifluoromethyl)benzamide]
7.2 nM |  |  | Cc1ncc(NC(=O)c2ccnc(C(C)(C)C#N)c2)cc1-c1cc(N2CCOCC2)c(OC2CCOCC2)nn1 [Example 633, 2-(2-cyanopropan-2-yl)-N-(6-methyl-5-(5-morpholino-6-((tetrahydro-2H-pyran-4-yl)oxy)pyridazin-3-yl)pyridin-3-yl)isonicotinamide]
 |  | 1.11 nM | COc1nnc(-c2cc(C(=O)Nc3ccnc(C(C)(F)F)c3)ccc2C)cc1N1CCOCC1 [Example 1019, N-(2-(1,1-difluoroethyl)pyridin-4-yl)-3-(6-methoxy-5-morpholinopyridazin-3-yl)-4-methylbenzamide]
0.9 nM |  |  | CCOc1nnc(-c2cc(NC(=O)c3cccc(C(F)(F)F)c3)cnc2C)cc1N1CCOCC1 [Example 609, N-(5-(6-ethoxy-5-morpholinopyridazin-3-yl)-6-methylpyridin-3-yl)-3-(trifluoromethyl)benzamide]
0.7 nM |  |  | CCNc1nc(-c2cc(NC(=O)c3cccc(C(F)F)c3)ccc2C)cc(N2CCOCC2)n1 [Example 698, 3-(difluoromethyl)-N-(3-(2-(ethylamino)-6-morpholinopyrimidin-4-yl)-4-methylphenyl)benzamide]
 |  | 2.78 nM | Cc1ncc(NC(=O)c2cc(C(C)(F)F)ccn2)cc1-c1cnc(OCCO)c(N2CCOCC2)c1 [Example 974, 4-(1,1-difluoroethyl)-N-(6′-(2-hydroxyethoxy)-2-methyl-5-morpholino-[3,3′-bipyridin]-5-yl)picolinamide]
 |  | 34.9 nM | Cc1ncc(NC(=O)c2cccc(-c3nnco3)c2)cc1-c1cc(N2CCOCC2)nc(N2CC(O)C2)c1 [Example 1092, N-(2′-(3-hydroxyazetidin-1-yl)-2-methyl-6′-morpholino-[3,4′-bipyridin]-5-yl)-3-(1,3,4-oxadiazol-2-yl)benzamide]
 |  | 1.98 nM | Cc1ncc(NC(=O)c2ccnc(C(C)(F)F)c2)cc1-c1cnc(OC(C)C)c(N2CCOCC2)c1 [Example 952, 2-(1,1-difluoroethyl)-N-(6′-isopropoxy-2-methyl-5′-morpholino-[3,3′-bipyridin]-5-yl)isonicotinamide]
 |  | 4.82 nM | Cc1ccc(NC(=O)c2ccnc(C(C)(C)C#N)c2)cc1-c1cc(N2CCOCC2)nc(N2CC(C)(O)C2)c1 [Example 1110, 2-(2-cyanopropan-2-yl)-N-(3-(2-(3-hydroxy-3-methylazetidin-1-yl)-6-morpholinopyridin-4-yl)-4-methylphenyl)isonicotinamide]
